Laboratory results: ChEMBL document CHEMBL5370616, “Novel Nitric Oxide Donor-Azole Conjugation Strategy for Efficient Treatment of Cryptococcus neoformans Infections” (J Med Chem, 2023)
≈ marks a conversion by molar mass, not a printed value. Calls of active or inactive are those of the source. The calls are words filed in the database; no cut-off is given here.

Legend:
Cryptococcus neoformans [1] = assay: In vivo antifungal activity against Cryptococcus neoformans H99 infected in cryptococcal meningitis ICR mouse model assessed as reduction in irregular cavities in brain at 1 mg/kg,INH QD for 5 days by H and E staining based microscopic analysis; type: functional, organism-based; settings: time 5.0 day
Cryptococcus neoformans [2] = assay: Inhibition of CYP51 in Cryptococcus neoformans H99 assessed as increase in other unknown sterol level at 0.125 ug/ml incubated for 24 hrs by GC-MS analysis (Rvb= 12.49%); settings: dose 0.125 µg/ml
Cryptococcus neoformans [3] = assay: In vivo antifungal activity against Cryptococcus neoformans H99 infected in cryptococcal meningitis ICR mouse model assessed as reduction in fungal burden in brain at 1 mg/kg,INH QD for 5 days by CFU assay; type: functional, organism-based; settings: time 5.0 day
Cryptococcus neoformans [4] = assay: Antifungal activity against Cryptococcus neoformans H99 assessed as reduction in number of colonies at 0.125 to 1 ug/ml incubated for 72 hrs by agar disk diffusion assay; type: functional; set-up: scale not given: the % may be the effect or the level left; settings: dose 0.125-1 µg/ml, at 0.125 to 1 µg/mL
Cryptococcus neoformans [5] = assay: In vivo antifungal activity against Cryptococcus neoformans H99 infected in cryptococcal meningitis ICR mouse model assessed as reduction in blood vessel congestion at 1 mg/kg,INH QD for 5 days by H and E staining based microscopic analysis; type: functional, organism-based; settings: time 5.0 day
Cryptococcus neoformans [6] = assay: Inhibition of biofilm formation in Cryptococcus neoformans H99 at 0.25 ug/ml incubated for 24 hrs in presence of 2-phenyl-4,4,5,5-tetramethylimidazoline-l-oxyl 3-oxide by XTT reduction assay; type: functional, organism-based; settings: dose 0.25 µg/ml
Cryptococcus neoformans [7] = assay: In vivo antifungal activity against Cryptococcus neoformans H99 infected in cryptococcal meningitis ICR mouse model assessed as reduction in fungal burden in lung at 1 mg/kg,INH QD for 5 days by CFU assay; type: functional, organism-based; settings: time 5.0 day
Cryptococcus neoformans [8] = assay: Inhibition of CYP51 in Cryptococcus neoformans H99 assessed as reduction in ergosterol level at 0.125 ug/ml incubated for 24 hrs by GC-MS analysis (Rvb= 58.33%); settings: dose 0.125 µg/ml
Cryptococcus neoformans [9] = assay: Antifungal activity against Cryptococcus neoformans H99 assessed as reduction in urease production at 4 ug/ml by microplate analysis; type: functional, organism-based; settings: dose 4.0 µg/ml
Cryptococcus neoformans [10] = assay: Antifungal activity against Cryptococcus neoformans H99 assessed as reduction in melanin production at 16 ug/ml by microplate analysis; type: functional, organism-based; settings: dose 16.0 µg/ml
[11] = Drug metabolism in Cryptococcus neoformans H99 assessed as NO release by measuring green fluorescence at 8 ug/ml incubated for 12 hrs by DAF-FM DA staining based confocal laser scanning microscopy; type: ADME; settings: dose 8 µg/ml
[12] = Metabolic stability in Sprague-Dawley rat liver microsomes assessed as parent compound remaining at 200 uM and measured upto 120 mins by HPLC analysis; type: ADME, Microsome; settings: 2 h
Cryptococcus neoformans [13] = assay: Fungicidal activity against Cryptococcus neoformans H99 assessed as reduction in colony forming units at 8 ug/ml incubated upto 72 hrs by time-kill assay; type: functional; set-up: scale not given: the % may be the effect or the level left; settings: dose 8 µg/ml
Cryptococcus neoformans [14] = assay: In vivo antifungal activity against Cryptococcus neoformans H99 infected in cryptococcal meningitis ICR mouse model assessed as reduction in neuronal necrosis at 1 mg/kg,INH QD for 5 days by H and E staining based microscopic analysis; type: functional, organism-based; settings: time 5.0 day
[15] = Metabolic stability in Sprague-Dawley rat plasma assessed as parent compound remaining at 500 uM and measured upto 120 mins by HPLC analysis; type: ADME, cell-free; settings: 2 h
Cryptococcus neoformans [16] = assay: Fungicidal activity against Cryptococcus neoformans H99 assessed as cell death by measuring red fluorescence at 8 ug/ml incubated for 12 hrs by PI staining based confocal laser scanning microscopy; type: functional, organism-based; settings: dose 8.0 µg/ml
Candida albicans [17] = assay: Antifungal activity against Candida albicans 0304103 assessed as reduction in fungal growth incubated for 48 hrs by CLSI protocol based microplate reader analysis; type: functional
Cryptococcus neoformans [18] = assay: Inhibition of biofilm formation in Cryptococcus neoformans H99 at 0.25 ug/ml incubated for 24 hrs by XTT reduction assay; type: functional
Cryptococcus neoformans [19] = assay: Inhibition of CYP51 in Cryptococcus neoformans H99 assessed as decrease in unknown sterol level at 0.125 ug/ml incubated for 24 hrs by GC-MS analysis (Rvb= 22.95%); settings: dose 0.125 µg/ml
Cryptococcus neoformans [20] = assay: Antifungal activity against Cryptococcus neoformans H99 assessed as change in internal microstructure by observing cell membrane damage at 0.125 to 4 ug/ml incubated for 8 hrs by TEM analysis; type: functional, organism-based; settings: dose 0.125-4 µg/ml
Cryptococcus neoformans [21] = assay: In vivo antifungal activity against Cryptococcus neoformans H99 infected in cryptococcal meningitis ICR mouse model assessed as reduction in organism brain invasion at 1 mg/kg,INH QD for 5 days by PAS staining based microscopic analysis; type: functional; settings: time 5.0 day
Candida albicans [22] = assay: Antifungal activity against Candida albicans SC5314 assessed as reduction in fungal growth incubated for 48 hrs by CLSI protocol based microplate reader analysis; type: functional
Cryptococcus neoformans [23] = assay: Disruption of preformed mature biofilm in Cryptococcus neoformans H99 assessed as removal of mature biofilm at 0.125 to 32 ug/ml incubated for 24 hrs in presence of 2-phenyl-4,4,5,5-tetramethylimidazoline-l-oxyl 3-oxide by XTT reduction assay; type: functional, organism-based; settings: dose 0.125-32 µg/ml
Nakaseomyces glabratus = assay: Antifungal activity against Candida glabrata 10639 assessed as reduction in fungal growth incubated for 48 hrs by CLSI protocol based microplate reader analysis; type: functional
Cryptococcus neoformans [24] = assay: Inhibition of CYP51 in Cryptococcus neoformans H99 assessed as increase in lanosterol level at 0.125 ug/ml incubated for 24 hrs by GC-MS analysis (Rvb= 6.24%); settings: dose 0.125 µg/ml
Cryptococcus neoformans [25] = assay: Disruption of preformed mature biofilm in Cryptococcus neoformans H99 assessed as removal of mature biofilm at 0.125 ug/ml incubated for 24 hrs by XTT reduction assay; type: functional; set-up: scale not given: the % may be the effect or the level left; settings: dose 0.125 µg/ml
Cryptococcus neoformans [26] = assay: Antifungal activity against Cryptococcus neoformans H99 assessed as change in internal microstructure by observing sparse capsule at 0.125 to 4 ug/ml incubated for 8 hrs by TEM analysis; type: functional, organism-based; settings: dose 0.125-4 µg/ml
Cryptococcus neoformans [27] = assay: Antifungal activity against Cryptococcus neoformans H99 assessed as reduction in fungal growth incubated for 72 hrs by CLSI protocol based microplate reader analysis; type: functional
Cryptococcus neoformans [28] = assay: Disruption of preformed mature biofilm in Cryptococcus neoformans H99 assessed as removal of mature biofilm at 32 ug/ml incubated for 24 hrs by XTT reduction assay; type: functional; set-up: scale not given: the % may be the effect or the level left; settings: dose 32 µg/ml
Cryptococcus neoformans [29] = assay: Antifungal activity against Cryptococcus neoformans H99 assessed as reduction in fungal growth at 0.25 to 8 ug/ml incubated upto 72 hrs by microplate reader analysis; type: functional, organism-based; settings: dose 0.25-8 µg/ml
Cryptococcus neoformans [30] = assay: In vivo antifungal activity against Cryptococcus neoformans H99 infected in cryptococcal meningitis ICR mouse model assessed as reduction in fungal burden in brain at 10 mg/kg,INH QD for 5 days by CFU assay; type: functional, organism-based; settings: time 5.0 day
Cryptococcus neoformans [31] = assay: In vivo antifungal activity against Cryptococcus neoformans H99 infected in cryptococcal meningitis ICR mouse model assessed as reduction in fungal burden in lung at 10 mg/kg,INH QD for 5 days by CFU assay; type: functional, organism-based; settings: time 5.0 day
Cryptococcus neoformans [32] = assay: In vivo antifungal activity against Cryptococcus neoformans H99 infected in cryptococcal meningitis ICR mouse model assessed as reduction in organism brain invasion at 10 mg/kg,INH QD for 5 days by PAS staining based microscopic analysis; type: functional; settings: time 5.0 day
Cryptococcus neoformans [33] = assay: In vivo antifungal activity against Cryptococcus neoformans H99 infected in cryptococcal meningitis ICR mouse model assessed as reduction in irregular cavities in brain at 10 mg/kg,INH QD for 5 days by H and E staining based microscopic analysis; type: functional, organism-based; settings: time 5.0 day
Cryptococcus neoformans [34] = assay: In vivo antifungal activity against Cryptococcus neoformans H99 infected in cryptococcal meningitis ICR mouse model assessed as reduction in neuronal necrosis at 10 mg/kg,INH QD for 5 days by H and E staining based microscopic analysis; type: functional, organism-based; settings: time 5.0 day
Cryptococcus neoformans [35] = assay: In vivo antifungal activity against Cryptococcus neoformans H99 infected in cryptococcal meningitis ICR mouse model assessed as reduction in blood vessel congestion at 10 mg/kg,INH QD for 5 days by H and E staining based microscopic analysis; type: functional, organism-based; settings: time 5.0 day

For `CN(Cc1ccc(OCCCOc2ccc(CC(=O)OCCO[N+](=O)[O-])cc2)cc1)CC(O)(Cn1cncn1)c1ccc(F)cc1F` (configuration not stated), which Activity (Cryptococcus neoformans [1]) is on record?
The Activity was “Active”.

And the inhibition (Cryptococcus neoformans [2])?
The inhibition was 26.5%.

And the Activity (Cryptococcus neoformans [3])?
Its Activity is “Active”.

What about the Activity (Cryptococcus neoformans [4]) of the same compound?
The Activity was 100%.

And the Activity (Cryptococcus neoformans [5])?
Its Activity is “Active”.

And the inhibition (Cryptococcus neoformans [6])?
Its inhibition is “inactive”.

What about the Activity (Cryptococcus neoformans [7]) of the same compound?
Its Activity is “Active”.

And the inhibition (Cryptococcus neoformans [8])?
The inhibition was 23.7%.

And the Activity (Cryptococcus neoformans [9])?
Its Activity is “Active”.

What about the Activity (Cryptococcus neoformans [10]) of the same compound?
Its Activity is “Active”.

What about the Drug metabolism [11] of the same compound?
Its Drug metabolism is “Metabolite_Detected”.

What about the Stability [12] of the same compound?
The Stability was “Unstable”.

What about the Activity (Cryptococcus neoformans [13]) of the same compound?
Its Activity is 100%.

What about the Activity (Cryptococcus neoformans [14]) of the same compound?
The Activity was “Active”.

What about the Stability [15] of the same compound?
The Stability was “Unstable”.

And the Activity (Cryptococcus neoformans [16])?
The Activity was “Active”.

And the MIC80 (Candida albicans [17])?
Its MIC80 is > 64 µg/mL.

And the inhibition at 0.25 µg/mL (Cryptococcus neoformans [18])?
Its inhibition at 0.25 µg/mL is > 50%.

And the inhibition (Cryptococcus neoformans [19])?
Its inhibition is 5.31%.

And the Activity (Cryptococcus neoformans [20])?
The Activity was “Active”.

And the Activity (Cryptococcus neoformans [21])?
The Activity was “Active”.

And the MIC80 (Candida albicans [22])?
Its MIC80 is 1 µg/mL (≈ 1.53 µM).

And the Activity (Cryptococcus neoformans [23])?
Its Activity is “inactive”.

And the MIC80 (Nakaseomyces glabratus)?
Its MIC80 is 1 µg/mL (≈ 1.53 µM).

What about the inhibition (Cryptococcus neoformans [24]) of the same compound?
The inhibition was 44.5%.

What about the Activity (Cryptococcus neoformans [25]) of the same compound?
Its Activity is 25%.

What about the Activity (Cryptococcus neoformans [26]) of the same compound?
The Activity was “Dose-Dependent Effect”.

And the MIC80 (Cryptococcus neoformans [27])?
Its MIC80 is 0.125 µg/mL (≈ 0.191 µM).

And the Activity (Cryptococcus neoformans [28])?
Its Activity is 50%.

What about the Activity (Cryptococcus neoformans [29]) of the same compound?
Its Activity is “Dose-Dependent Effect”.

What does the source list for `CN(Cc1ccc(OCCCOc2ccc(CC(=O)NCCO[N+](=O)[O-])cc2)cc1)CC(O)(Cn1cncn1)c1ccc(F)cc1F` (configuration not stated)?
Activity (Cryptococcus neoformans [30]): Active; Stability [12]: Stable; Stability [15]: Stable; Activity (Cryptococcus neoformans [31]): inactive; MIC80 (Candida albicans [17]): > 64 µg/mL; Activity (Cryptococcus neoformans [32]): Active; MIC80 (Candida albicans [22]): 1 µg/mL (≈ 1.53 µM); MIC80 (Nakaseomyces glabratus): 1 µg/mL (≈ 1.53 µM); Activity (Cryptococcus neoformans [33]): Active; MIC80 (Cryptococcus neoformans [27]): 0.125 µg/mL (≈ 0.191 µM); Activity (Cryptococcus neoformans [34]): Active; Activity (Cryptococcus neoformans [35]): Active
